Measurements from the supplement of paper PMC10307832.

Tests used:
Test in all cases: relative viability (nuclei count vs DMSO), 5 days (fraction); higher = more cells survive
[1] = compound: CC1=CC(=NN1)NC2=CC(=NC(=N2)/C=C/C3=CC=CC=C3)N4CCN(CC4)C + O=C(CCCCCCC(=O)Nc1ccccc1)NO [Vorinostat] (partner 1 µM)
How it was run: (§1)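 A single step with final 0.05% Triton X-100, 1% formaldehyde and 1 ug/ml Hoechst fixed the cells and stained nuclei 5 days after treatment. Lung cancer cell lines in 1536-well plates had been treated by pin tool the day after seeding with one drug alone or a fixed anchor-drug dose plus five library-drug doses (not always all listed) in √10 steps, and nuclei were counted on 4× images. Relative viability is the ratio of nuclei in treated wells to nuclei in vehicle wells, taken as the median of duplicate plates.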

Bortezomib + Linsitinib = compound: CC(C)C[C@H](NC(=O)[C@H](Cc1ccccc1)NC(=O)c1cnccn1)B(O)O [Bortezomib] + C[C@]1(O)C[C@@H](c2nc(-c3ccc4ccc(-c5ccccc5)nc4c3)c3c(N)nccn32)C1 [Linsitinib] (partner 1 µM)
How it was run: as §1

Bortezomib + AZD7762 = compound: CC(C)C[C@H](NC(=O)[C@H](Cc1ccccc1)NC(=O)c1cnccn1)B(O)O [Bortezomib] + NC(=O)Nc1cc(-c2cccc(F)c2)sc1C(=O)N[C@H]1CCCNC1 [AZD7762] (partner 0.2 µM)
How it was run: as §1

Obatoclax + Foretinib = compound: COC1=CC(c2cc3ccccc3[nH]2)=N/C1=C\c1[nH]c(C)cc1C [Obatoclax] + COc1cc2c(Oc3ccc(NC(=O)C4(C(=O)Nc5ccc(F)cc5)CC4)cc3F)ccnc2cc1OCCCN1CCOCC1 [Foretinib] (partner 0.25 µM)
How it was run: as §1

## NCI-H650
[1]; first compound 0.08 µM
  relative viability: 0.412
[1]; first compound 0.253 µM
  relative viability: 0.717
[1]; first compound 0.8 µM
  relative viability: 0.495
[1]; first compound 2.53 µM
  relative viability: 0.409
[1]; first compound 8 µM
  relative viability: 0.174
Bortezomib + Linsitinib; first compound 0.000632 µM
  relative viability: 0.806
Bortezomib + Linsitinib; first compound 0.002 µM
  relative viability: 0.811
Bortezomib + Linsitinib; first compound 0.006325 µM
  relative viability: 0.338
Bortezomib + Linsitinib; first compound 0.02 µM
  relative viability: 0.234
Bortezomib + AZD7762; first compound 0.0002 µM
  relative viability: 0.949
Bortezomib + AZD7762; first compound 0.000632 µM
  relative viability: 1.08
Bortezomib + AZD7762; first compound 0.002 µM
  relative viability: 0.95
Bortezomib + AZD7762; first compound 0.006325 µM
  relative viability: 0.942
Bortezomib + AZD7762; first compound 0.02 µM
  relative viability: 0.289
Obatoclax + Foretinib; first compound 0.01 µM
  relative viability: 1.01
Obatoclax + Foretinib; first compound 0.03162 µM
  relative viability: 0.986
Obatoclax + Foretinib; first compound 0.3162 µM
  relative viability: 0.717
Obatoclax + Foretinib; first compound 1 µM
  relative viability: 0.38
